According to US20040110777A1, “Quinazolinones and pyridinylpyrimidinones for controlling invertebrate pests” (priority 2003, published 2004):

Compound: Cc1nc(C(F)(F)F)ccc1-c1nc2c(C)cccc2c(=O)n1C(C)C [Compound 5, 8-methyl-3-(1-methylethyl)-2-[2-methyl-6-(trifluoromethyl)-3-pyridinyl]-4(3H)-quinazolinone]
- melting point: 132 to 135 °C
